Where two headings read alike, the source gives them in different places.
Legend:
[1] = test system: T cells stimulated with OKT-3; test: IL-2 proliferation test: 3H-thymidine incorporation in T cells stimulated with OKT-3 (CD3-induced proliferation); assay type: cell-based; settings: Compound [10 μmol], OKT-3 1 μg/ml, 45 hours; for inhibition: T-cell
Description: The IL-2 proliferation test is based on the incorporation of ^3 H-thymidine in T cells stimulated with OKT-3 (human anti-CD-3-antibodies) and is carried out by inoculating 100,000 T cells into microtitre plates in 150 μl of culture medium per well, stimulated by addition of OKT-3 (1 μg/ml) and incubated for 45 hours in each case with one of the compounds of Formula I. After this incubation time, 10 μl of the ^3 H-thymidine solution (0.5 μCi) are pipetted into each well. The mixture is then incubated in a 5% CO2 atmosphere at 37° C. for 6 hours. After harvesting the cells, the radioactivity is quantified in a B-counter.

human cyclophilin B = human cyclophilin B (Homo sapiens, UniProt P23284); test: PPIase test: inhibition of human cyclophilin B (Suc-Ala-Ala-Pro-Phe-Nan, chymotrypsin); assay type: biochemical; settings: Compound [10 μmol]; preincubated 15 minutes at 4° C. with 10 nmol Cyp B
Description: The compounds of Formula I of the present invention are distinguished by immunophilin binding and inhibit isomerase activity. This prolyl isomerase activity is tested according to a conventional, well known enzyme test described in G. Fischer, H. Bang. Mech, Biomed. Biochim. Acta, 43, 1101-1111; G. Fischer, H. Bang, A Schellenberger, Biochim. Biophys. Acta, 791, 87-97, 1984; D. H. Rich et al., J. Med. Chem. 38, 4164-4170, 1995.
The compounds of Formula I of the present invention are distinguished by immunophilin binding and inhibit its peptidyl-prolyl cis-trans isomerase (PPlase) activity. […] This PPlase activity is determined by the aforementioned well known enzyme test.
The compounds of Formula I are preincubated at 4° C. for 15 minutes together with 10 nmol of Cyp B. The enzyme reaction is started using the test peptide Suc-Ala-Ala-Pro-Phe-Nan after addition of chymotrypsin and HEPES buffer. The change in extinction at 390 nm is then monitored and analyzed. The photometrically determined change in extinction results from two subreactions: a) the rapid chymotryptic cleavage of the trans peptide; b) the nonenzymatic cis-trans isomerization, which is catalysed by cyclophilins.

[2] = test system: bronchial asthma and underlying inflammations; settings: animal experiments and clinical studies; cited from earlier work
[3] = kidneys, neurotoxicity; cited from earlier work
FKBP = settings: cited from earlier work
IL-2 proliferation [4] = settings: published, cited from earlier work
IL-2 proliferation [5] = test: Inhibition of IL-2 proliferation (published indoline-2-carboxamide); assay type: cell-based; settings: 10 μmol; new measurements
Source text: A further compound having immunosuppressant properties was discovered during the screening of substance mixtures (G. Quinkert, H. Bang and D. Reichert, Helv. Chim. Acta 1996, 79, 1260).

Chain of human cyclophilin B (P23284 34-216): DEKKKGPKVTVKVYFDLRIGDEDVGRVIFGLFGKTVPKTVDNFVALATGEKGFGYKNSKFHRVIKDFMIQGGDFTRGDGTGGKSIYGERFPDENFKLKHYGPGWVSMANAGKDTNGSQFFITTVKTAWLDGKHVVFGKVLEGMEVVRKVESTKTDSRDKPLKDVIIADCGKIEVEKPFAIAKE

Compound | inhibition [1] [%] | inhibition at 10 µM (human cyclophilin B) [%] | other results
COCCNC(=O)C1Cc2ccccc2N1C(=O)C1Cc2ccccc2N1S(=O)(=O)c1ccc(NC(C)=O)cc1 (racemic) [Example 5, (2R,S)-1-[((2R,S)-1-(4-acetylaminophenylsulfonyl)indolin-2-yl)-carbonyl]-N-(2-methoxyethyl)indoline-2-carbamide] | 85 | 20 to 40 | 
COC(=O)[C@H]1Cc2ccccc2N1C(=O)[C@H]1Cc2ccccc2N1S(=O)(=O)c1ccc(NC(C)=O)cc1 (racemic) [Example 22, Methyl (2RS)-1-({(2RS)-1-[4-(acetylamino)phenylsulfonyl]indolin-2-yl}carbonyl)indoline-2-carboxylate] | 43 | 30 | 
CC(=O)Nc1ccc(S(=O)(=O)N2c3ccccc3C[C@@H]2C(=O)N2c3ccccc3C[C@@H]2C(=O)O)cc1 (racemic) [Example 23, (2RS)-1-({(2RS)-1-[4-(acetylamino)phenylsulfonyl]indolin-2-yl}-carbonyl)indoline-2-carboxylic acid] | 46 | 0 to 20 | 
COCCNC(=O)[C@@H]1Cc2ccccc2N1C(=O)[C@@H]1Cc2ccccc2N1S(=O)(=O)c1ccc(NC(C)=O)cc1 [Example 1] | 83 | 40 | 
COCCNC(=O)[C@H]1Cc2ccccc2N1C(=O)[C@@H]1Cc2ccccc2N1S(=O)(=O)c1ccc(NC(C)=O)cc1 [Example 2] | 85 | 40 | 
COCCNC(=O)[C@@H]1Cc2ccccc2N1C(=O)[C@H]1Cc2ccccc2N1S(=O)(=O)c1ccc(NC(C)=O)cc1 [Example 3] | 84 | 40 | 
COCCNC(=O)[C@H]1Cc2ccccc2N1C(=O)[C@H]1Cc2ccccc2N1S(=O)(=O)c1ccc(NC(C)=O)cc1 [Example 4] | 85 | 60 | 
COCCNC(=O)[C@@H]1Cc2ccccc2N1C(=O)[C@@H]1Cc2ccccc2N1S(=O)(=O)c1ccc(N)cc1 [Example 6, (2S)-1-[((2S)-1-(4-aminophenylsulfonyl)indolin-2-yl)carbonyl]-N-(2-methoxyethyl)indoline-2-carbamide] | 84 | 40 | 
COCCNC(=O)[C@@H]1Cc2ccccc2N1C(=O)[C@@H]1CCCN1S(=O)(=O)c1ccc(N)cc1 [Example 7, (^2 S)-1-[((2S)-1-(4-aminophenylsulfonyl)prolyl)carbonyl]-N-(2-methoxyethyl)indoline-2-carbamide] | 79 | 40 | 
COCCNC(=O)[C@@H]1Cc2ccccc2N1C(=O)C1CCN(S(=O)(=O)c2ccc(N)cc2)CC1 [Example 8, (2S)-1-[((2S)-1-(4-aminophenylsulfonyl)-4-piperidinyl)carbonyl]-N-(2-methoxyethyl)indoline-2-carbamide] | 71 | 40 to 60 | 
COCCNC(=O)[C@@H]1Cc2ccccc2N1C(=O)C1CCN(S(=O)(=O)c2ccc(NC(C)=O)cc2)CC1 [Example 9] | 75 | 40 to 60 | 
COCCNC(=O)[C@@H]1Cc2ccccc2N1S(=O)(=O)c1cccc2cccnc12 [Example 10, (2S)-1-[(8-quinolinylsulfonyl)]-N-(2-methoxyethyl)indolinecarbamide] | 59 | 20 to 40 | 
CC(=O)Nc1ccc(S(=O)(=O)N2c3ccccc3C[C@H]2C(=O)N[C@@H](CC(C)C)C(=O)O)cc1 [Example 11] |  |  | CD3-induced inhibition of proliferation in [%] [1]: 61%; Inhibition [%] of PPIase activity (human cyclophilin B): 40%
COC(=O)[C@H](CCCCNC(=O)OCc1ccccc1)NC(=O)[C@@H]1Cc2ccccc2N1S(=O)(=O)c1ccc(NC(C)=O)cc1 [Example 12, (S)-N-{(2S)-1-[4-(acetylamino)phenylsulfonyl]indolin-2-yl}carbonyl-N-(benzyloxycarbonyl)lysine methyl ester] | 79 | 60 | 
COC(=O)/C=C/c1ccc(NC(=O)[C@@H]2Cc3ccccc3N2S(=O)(=O)c2ccc(NC(C)=O)cc2)cc1 [Example 13, Methyl (E)-({(2S)-1-[4(acetylamino)phenylsulfonyl]indoln-2-yl}-carbonyl)-4-(aminophenyl)acrylate] | 46 | 0 to 20 | 
COCCNC(=O)[C@@H]1Cc2ccccc2N1C(=O)[C@@H]1Cc2ccccc2N1S(=O)(=O)c1cccc2ccccc12 [Example 14, (2S)-1-[((2S)-1-(1-naphthalenylsulfonyl)indolin-2-yl)carbonyl]-N-(2-methoxyethyl)indoline-2-carbamide] | 48 | 20 | 
COCCNC(=O)[C@@H]1Cc2ccccc2N1C(=O)[C@@H]1Cc2ccccc2N1S(=O)(=O)c1ccc2ccccc2c1 [Example 15, (2S)-1-[((2S)-1-(2-Naphthalenylsulfonyl)indolin-2-yl)carbonyl]-N-(2-methoxyethyl)indoline-2-carbamide] | 56 | 20 | 
Cc1ccc(S(=O)(=O)N2c3ccccc3C[C@H]2C(=O)N2c3ccccc3C[C@H]2C(=O)NCCCn2ccnc2)cc1 [Example 16, (2S)-1-[((2S)-1-(4-methylphenylsulfonyl)indolin-2-yl)carbonyl]-N^3-(N-propylimidazole)indoline-2-carbamide] | 54 | 20 to 40 | 
Cc1ccc(S(=O)(=O)N2c3ccccc3C[C@H]2C(=O)N2c3ccccc3C[C@H]2C(=O)NCCN2CCOCC2)cc1 [Example 17, (2S)-1-[((2S)-1-(4-methylphenylsulfonyl)indolin-2-yl)carbonyl]-N^2-(N-ethylmorpholine)indoline-2-carbamide] | 57 | 40 | 
Cc1ccc(S(=O)(=O)N2c3ccccc3C[C@H]2C(=O)N2c3ccccc3C[C@H]2C(=O)NCCc2ccccn2)cc1 [Example 18, (2S)-1-[((2S)-1-(4-methylphenylsulfonyl)indolin-2-yl)carbonyl]-N^2-(ethyl-2-pyridine)indoline-2-carbamide] | 59 | 40 | 
Cc1ccc(S(=O)(=O)N2c3ccccc3C[C@H]2C(=O)N2c3ccccc3C[C@H]2C(=O)Nc2ccncc2)cc1 [Example 19, (2S)-1-[((2S)-1-(4-methylphenylsulfonyl)indolin-2-yl)carbonyl]-(4-pyridine)indoline-2-carbamide] | 64 | 40 | 
COC(=O)[C@H]1Cc2ccccc2N1S(=O)(=O)c1ccc(NC(C)=O)cc1 [Example 20, Methyl (2R)-[4-(acetylamino)phenylsulfonyl]indoline-2-carboxylate] | 15 | 0 to 20 | 
CC(=O)Nc1ccc(S(=O)(=O)N2c3ccccc3C[C@@H]2C(=O)O)cc1 [Example 21, (2R)-[4-(acetylamino)phenylsulfonyl]indoline-2-carboxylic acid] | 12 | 0 to 20 | 
C=CC[C@@H]1/C=C(\C)C[C@H](C)C[C@H](OC)[C@H]2O[C@@](O)(C(=O)C(=O)N3CCCC[C@H]3C(=O)O[C@H](/C(C)=C/[C@@H]3CC[C@@H](O)[C@H](OC)C3)[C@H](C)[C@@H](O)CC1=O)[C@H](C)C[C@@H]2OC [FK 506] |  |  | therapeutic effect in bronchial asthma [2]: favorable therapeutic in bronchial asthma and underlying inflammations; side effects [3]: manifold side effects, in particular of the kidneys, and neurotoxicity; binding to FKBP (FKBP): bind with high affinity
CO[C@H]1C[C@@H]2CC[C@@H](C)[C@@](O)(O2)C(=O)C(=O)N2CCCC[C@H]2C(=O)O[C@H]([C@H](C)C[C@@H]2CC[C@@H](O)[C@H](OC)C2)CC(=O)[C@H](C)/C=C(\C)[C@@H](O)[C@@H](OC)C(=O)[C@H](C)C[C@H](C)/C=C/C=C/C=C/1C [rapamycin] |  |  | side effects [3]: manifold side effects, in particular of the kidneys, and neurotoxicity
indoline-2-carboxamide |  |  | inhibition of IL-2 proliferation (IL-2 proliferation [4]; 1 μmol): 12%; inhibition of IL-2 proliferation (IL-2 proliferation [4]; 10 μmol): 77%; IL-2-dependent inhibition of proliferation (IL-2 proliferation [5]): 29%

Source: US6251932A, “Immunophilin ligands” (ASTA Medica AG, priority 1998, dated 2001)
